Consider three compounds from publication PMC11602115 (Journal of Medicinal Chemistry, 2017).

One data set in a line: Rat PK (iv and oral). The class given is in vivo. The settings on record: for AUC(0-inf) / bioavailability: Sprague-Dawley; for AUC(0-inf): after oral administration 10 mg/kg (5m 10.5); for bioavailability: po, 10 mg/kg; for unbound Cmax plasma concentration: single oral dose 30 mg/kg, based on 1% free fraction of the measured Cmax.
The test system of a further data set is 95 GPCR profile. Briefly: Wider binding screen (95 GPCR profile, MDS Pharma). The settings on record: 95 GPCR profile (MDS Pharma Inc.). From the text: [15] 95 GPCR profile (MDS Pharma Inc.).
The target in a further data set is T1, EP1 (Homo sapiens, UniProt P34995).
T1 sequence (P34995 1-402): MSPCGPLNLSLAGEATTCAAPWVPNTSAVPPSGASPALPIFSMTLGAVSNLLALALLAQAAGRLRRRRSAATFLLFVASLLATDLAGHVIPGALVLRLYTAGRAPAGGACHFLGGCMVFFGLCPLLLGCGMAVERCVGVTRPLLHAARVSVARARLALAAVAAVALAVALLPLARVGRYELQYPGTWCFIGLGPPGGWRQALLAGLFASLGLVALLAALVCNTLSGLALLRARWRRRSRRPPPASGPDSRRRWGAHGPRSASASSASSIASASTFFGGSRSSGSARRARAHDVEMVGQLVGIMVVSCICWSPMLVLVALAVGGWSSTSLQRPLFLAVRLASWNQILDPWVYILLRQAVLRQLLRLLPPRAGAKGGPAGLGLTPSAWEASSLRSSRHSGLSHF
Briefly: cAMP HTRF agonist assay, EP1. The class given is cell-based. From the text:
Table Sup2: Data with some comparator compounds in functional assays.
Compound DP1 EP1 EP2 EP3v6 EP4
EC50, µµµµM (% I.A) EC50, µµµµM (% I.A) EC50, µµµµM (% I.A) EC50, µµµµM (% I.A) EC50, µµµµM (% I.A)
n = 3 n = 2 n = 8 n = 6 n = 6 […]
In general terms: In TR-FRET formats the signal depends on donor and acceptor labels being close together.

The target in the next data set is DP1 (Homo sapiens, UniProt Q13258). Put plainly: Radioligand binding, DP1 ([3H]-PGD2). The settings on record: cloned human receptor; mean of two determinations. The method, then:
Additional (non-IP) receptor binding assays were carried out by MDS Pharma (Taiwan) and CEREP (France).

In another data set the target is hERG channel (Homo sapiens, UniProt Q12809). Put plainly: hERG patch clamp assay. It is filed as cell-based. The settings on record: read-out: IC50 hERG channel functional activity. A general note: hERG is a cardiac potassium channel; its block is linked to QT prolongation.
hERG channel, sequence (Q12809 whole entry): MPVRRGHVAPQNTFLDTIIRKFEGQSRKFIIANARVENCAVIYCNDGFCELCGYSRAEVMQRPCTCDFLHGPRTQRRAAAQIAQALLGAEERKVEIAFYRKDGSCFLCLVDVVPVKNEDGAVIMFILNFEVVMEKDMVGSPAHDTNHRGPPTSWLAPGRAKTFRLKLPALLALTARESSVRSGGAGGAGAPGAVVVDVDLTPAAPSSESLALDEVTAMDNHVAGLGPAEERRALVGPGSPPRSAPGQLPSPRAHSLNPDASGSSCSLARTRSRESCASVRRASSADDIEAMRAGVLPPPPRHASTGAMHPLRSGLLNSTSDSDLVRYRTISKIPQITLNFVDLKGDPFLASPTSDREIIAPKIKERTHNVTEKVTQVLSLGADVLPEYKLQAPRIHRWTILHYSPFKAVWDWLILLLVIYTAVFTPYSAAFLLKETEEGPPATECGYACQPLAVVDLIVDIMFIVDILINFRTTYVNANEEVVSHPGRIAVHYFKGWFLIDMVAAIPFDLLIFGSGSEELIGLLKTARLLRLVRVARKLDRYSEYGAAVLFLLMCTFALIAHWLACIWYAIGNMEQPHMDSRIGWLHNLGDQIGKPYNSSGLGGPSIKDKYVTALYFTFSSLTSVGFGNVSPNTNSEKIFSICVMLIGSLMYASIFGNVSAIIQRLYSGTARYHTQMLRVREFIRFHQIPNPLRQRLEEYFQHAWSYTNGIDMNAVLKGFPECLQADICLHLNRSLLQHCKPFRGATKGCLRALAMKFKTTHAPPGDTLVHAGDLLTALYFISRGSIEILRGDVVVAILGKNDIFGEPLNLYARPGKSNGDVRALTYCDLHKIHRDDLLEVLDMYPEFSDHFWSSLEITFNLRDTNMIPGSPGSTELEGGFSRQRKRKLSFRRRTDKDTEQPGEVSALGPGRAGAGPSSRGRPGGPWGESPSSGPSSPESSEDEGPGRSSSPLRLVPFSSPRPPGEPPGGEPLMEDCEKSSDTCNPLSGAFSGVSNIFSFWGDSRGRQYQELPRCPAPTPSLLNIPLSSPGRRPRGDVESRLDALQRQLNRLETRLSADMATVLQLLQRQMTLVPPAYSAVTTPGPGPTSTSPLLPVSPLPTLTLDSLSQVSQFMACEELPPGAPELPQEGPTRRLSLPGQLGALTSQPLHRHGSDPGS
The next data set relates to MCT-induced PAH. Briefly: Rat monocrotaline (MCT) model of PAH, preventative oral dosing. It is filed as in vivo, male Sprague-Dawley rats. The note with it: for inhibition of the MCT-induced increase in RV/(LV + S): oral, twice daily for 21 days, preventative mode. As to the method: Following anesthesia by intraperitoneal injection of 30 mg/kg pentobarbital, rats were given a subcutaneous injection of either 60 mg/kg MCT (Sigma, catalog no. C2401-1G) or 0.9% saline for the sham group. […] Hemodynamic measurements were performed with animals from the 30 mg/kg group (but not the 10 mg/kg group) anesthetized with 60 mg/kg pentobarbital. Under anesthesia, each animal was intubated with a rodent ventilator (Harvard Apparatus, model 683) at 70 breaths/min of a rate and a tidal volume of 2.5 mL in supine position on a heating pad set at 37 °C. A small opening in the apex of the right ventricle was made using a 23G needle, then a Millar catheter (Millar Instruments, Inc. model SPR-320) was placed into the right ventricle through the opening in the apex, then into the pulmonary artery (PA) for the pressure measurement. A second catheter was inserted through the […] for the measurement of mean arterial pressure. After stabilization, heart rate, mean arterial pressure, and systolic RV pressure were calculated from 20 consecutive heart beats in each rat.
The ventricles and lungs were excised and weighed. The ratio of RV weight to left ventricle plus septum (LV + S) was calculated as an index of right ventricular hypertrophy.
As the collection and preservation of the tissues are very resource intensive, 5 animals were selected from each group for measurement of vessel thickness; this was sufficient to obtain clear statistical differences between groups. Paraffin sections of 4 μm thickness were obtained from the lower region of the right lung and stained with hematoxylin/eosin. Analysis of the medial wall thickness of the pulmonary arterioles was performed. In brief, the external diameter and medial wall thickness were measured in 20 muscular arteries (25–100 μm external diameters) per lung section. For each artery, the medial wall thickness was expressed as follows: % wall thickness = [(external diameter – internal diameter)/external diameter] × 100. Each vessel was measured twice, perpendicularly along the long axis and short axis, and averages of both measurements were used.

In a further data set the target is CYP 2C9 (Homo sapiens, UniProt P11712). Briefly: Cytochrome P450 inhibition, CYP2C9. It is filed as in vitro ADME.
CYP 2C9, sequence (P11712 whole entry): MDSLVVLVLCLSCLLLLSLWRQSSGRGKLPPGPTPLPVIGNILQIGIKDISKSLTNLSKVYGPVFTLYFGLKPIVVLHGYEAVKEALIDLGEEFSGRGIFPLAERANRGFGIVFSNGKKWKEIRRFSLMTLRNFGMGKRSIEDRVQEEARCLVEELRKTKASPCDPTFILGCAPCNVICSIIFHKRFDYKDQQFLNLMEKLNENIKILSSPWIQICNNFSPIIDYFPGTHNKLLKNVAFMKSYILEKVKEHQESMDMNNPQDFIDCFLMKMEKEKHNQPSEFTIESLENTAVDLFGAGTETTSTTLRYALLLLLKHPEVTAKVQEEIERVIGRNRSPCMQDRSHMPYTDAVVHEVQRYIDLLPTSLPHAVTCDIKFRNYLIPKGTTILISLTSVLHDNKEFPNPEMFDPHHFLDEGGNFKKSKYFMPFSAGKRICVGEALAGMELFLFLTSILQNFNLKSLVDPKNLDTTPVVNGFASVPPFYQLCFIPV
Data set [1] is described as follows: Stability in human microsome preparations. It is filed as in vitro ADME. The note with it: incubation at 37 °C, human microsomes; read-out: human MS, T1/2. From the text:
Table 1 Screening Data for Selected Analogues ^a | column: human and rat MS, T1/2 (min) ^g

The target in another data set is CYP 2C19 (Homo sapiens, UniProt P33261). Briefly: Cytochrome P450 inhibition, CYP2C19. It is filed as in vitro ADME.
CYP 2C19, sequence (P33261 whole entry): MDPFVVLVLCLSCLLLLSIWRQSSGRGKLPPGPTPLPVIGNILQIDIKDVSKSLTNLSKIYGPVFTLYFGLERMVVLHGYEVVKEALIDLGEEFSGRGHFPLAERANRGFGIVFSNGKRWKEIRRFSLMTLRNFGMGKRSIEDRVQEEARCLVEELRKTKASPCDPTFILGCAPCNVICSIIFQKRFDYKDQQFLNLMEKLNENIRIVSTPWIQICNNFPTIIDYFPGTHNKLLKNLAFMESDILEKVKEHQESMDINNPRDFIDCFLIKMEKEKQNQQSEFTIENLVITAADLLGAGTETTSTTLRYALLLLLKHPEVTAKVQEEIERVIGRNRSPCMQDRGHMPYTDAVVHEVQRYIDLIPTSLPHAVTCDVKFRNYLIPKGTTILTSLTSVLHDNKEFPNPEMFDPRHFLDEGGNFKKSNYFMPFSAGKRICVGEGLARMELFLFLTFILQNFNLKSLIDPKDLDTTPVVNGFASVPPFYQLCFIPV
The next data set addresses IP (Homo sapiens, UniProt P43119). Briefly: Recombinant human IP receptor cAMP assay after elimination of receptor reserve (transient CHO). The class given is cell-based. The note with it: following elimination of receptor reserve. Set-up: expressed in transfected cells. From the text: Additional In Vitro Assays
To determine the potency and efficacy of compounds in cAMP assays in the absence of receptor reserve effects, the cDNA sequence of the human IP receptor was subqcloned into an expression plasmid containing a ubiquitin promoter in place of the more commonly used CMV promoter. The ubiquitin […]
level of receptor expression after transfection into a suitable cell line. This plasmid was transiently transfected into CHO cells using lipofectamine, following standard protocols. The quantity of transfected plasmid DNA was titrated down from 16 µg to 1 ng per transfection using empty vector as carrier DNA.
Background: Changes in cAMP serve as a functional read-out for many G protein-coupled receptors.

Where [2] appears, read: terminal half-life after iv 2 mg/kg (5m 2.1).
Where [3] appears, read: total clearance, iv 2 mg/kg (5m 2.1).

IP, sequence (P43119 whole entry): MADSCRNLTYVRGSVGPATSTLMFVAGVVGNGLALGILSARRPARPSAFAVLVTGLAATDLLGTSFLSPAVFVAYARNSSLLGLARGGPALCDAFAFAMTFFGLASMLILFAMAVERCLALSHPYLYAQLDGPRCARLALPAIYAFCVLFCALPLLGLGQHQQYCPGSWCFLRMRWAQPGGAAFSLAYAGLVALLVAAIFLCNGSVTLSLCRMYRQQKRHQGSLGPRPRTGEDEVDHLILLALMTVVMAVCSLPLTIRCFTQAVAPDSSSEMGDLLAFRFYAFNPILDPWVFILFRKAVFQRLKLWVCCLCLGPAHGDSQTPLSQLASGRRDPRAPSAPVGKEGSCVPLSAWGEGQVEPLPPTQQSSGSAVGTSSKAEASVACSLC
DP1, sequence (Q13258 whole entry): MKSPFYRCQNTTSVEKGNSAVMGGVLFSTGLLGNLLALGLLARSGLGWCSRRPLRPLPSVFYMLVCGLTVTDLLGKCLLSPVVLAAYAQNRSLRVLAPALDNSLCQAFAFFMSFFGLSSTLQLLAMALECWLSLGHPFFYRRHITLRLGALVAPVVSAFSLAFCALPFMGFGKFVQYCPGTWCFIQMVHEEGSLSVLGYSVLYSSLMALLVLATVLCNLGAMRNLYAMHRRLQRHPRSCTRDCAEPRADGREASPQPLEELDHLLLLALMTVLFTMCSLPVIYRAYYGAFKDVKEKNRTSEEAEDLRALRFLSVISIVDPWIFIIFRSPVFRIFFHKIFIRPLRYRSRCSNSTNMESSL

A word on the AUC(0-inf): it is total exposure, with the tail of the curve extrapolated. Higher therefore signals high exposure. For orientation: bioavailability means the share of a dose that reaches the circulation, judged against a reference dose that is usually intravenous. A lower bioavailability goes with poor availability. Broadly, the Cmax is the peak of the concentration-time curve. For orientation: Tmax means the time from dosing to the highest level. In general, EC50 refers to the concentration needed to bring the measured effect to its halfway point. A lower EC50 goes with a more potent agent. One may read the Ki as a measure of affinity in units of concentration, obtained from inhibition or displacement. Higher therefore signals a looser hold on the target. Usually IC50 stands for the point on the concentration scale where inhibition reaches its midpoint. For `O=C(O)COC[C@H]1CC[C@H](COC(=O)N(c2ccccc2)c2ccc(Cl)cc2)CC1` [5c, Sodium 2-(((1r,4r)-4-(((4-Chlorophenyl)(phenyl)carbamoyloxy)methyl)cyclohexyl)methoxy)acetate], the half-life in the data set “Rat PK (iv and oral)” (CD-1 (mouse), Sprague-Dawley (rat), plasma, oral, rodents, read-out: elimination half-life in rodents) is 5 to 8 h; in data set [1], over 1 h. Further, in the data set “Rat PK (iv and oral)” (plasma), the AUC(0-inf) stood at 14600 ng·h/mL. The same compound had a bioavailability in “Rat PK (iv and oral)” (plasma) of 57%. The “AUC0–inf” value in “Rat PK (iv and oral)” (iv 2 mg/kg (Table 4)) was 5090 ± 1620 ng·h/mL. Further, the Clobs in “Rat PK (iv and oral)” (iv 2 mg/kg (Table 4)) came to 0.427 ± 0.163 L h^–1 kg^–1; in “Rat PK (iv and oral)” (setting [3]), 0.43 L h^–1 kg^–1. In addition, the T1/2 in the data set “Rat PK (iv and oral)” (iv 2 mg/kg (Table 4)) is 6.72 ± 0.98 h; in “Rat PK (iv and oral)” (po 10.0 mg/kg (Table 4)), 5.45 ± 1.52 h; in “Rat PK (iv and oral)” (setting [2]) it was 6.7 h. The “unbound Cmax” value in the data set “Rat PK (iv and oral)” (oral 10 mg/kg, calculated from the PK experiment) is recorded as “around 100 nM”. For the same compound, the Cmax in the data set “Rat PK (iv and oral)” (po 10 mg/kg (5m 10.5)) turned out to be 3700 ng/mL; in “Rat PK (iv and oral)” (po 10.0 mg/kg (Table 4)), 3700 ± 1340 ng/mL. Moreover, the Tmax in the data set “Rat PK (iv and oral)” (po 10 mg/kg (5m 10.5)) stood at 1.5 h. The compound also came in with a F in the data set “Rat PK (iv and oral)” (po 10.0 mg/kg (Table 4)) of 57.4%. In addition, in the data set “Rat PK (iv and oral)”, the “unbound Cmax plasma concentration” value was determined as 300 nM. The “off-target liabilities in a wider screen” value in the data set on 95 GPCR profile is on record as “no additional off-target liabilities were observed”. This compound also showed an EC50 on EP1 of over 10 µM. In addition, the Ki at DP1 is 2.6 µM. Moreover, the IC50 at hERG channel is over 30 µM; against CYP 2C9, over 50 µM; against CYP 2C19, over 50 µM. Further, in the data set on MCT-induced PAH (10 mg/kg oral twice daily), the “effect on hypertrophy (RV/(LV + S))” value is “did not show a statistically significant effect”. The “pulmonary vessel wall thickness” value in the data set on MCT-induced PAH (30 mg/kg oral twice daily, 5 animals) is on record as “significantly reduce”. The “MCT-induced increase in pulmonary arterial pressure (mPAP)” value in the data set with MCT-induced PAH (30 mg/kg oral twice daily, subset of the test group (5 animals)) was “significantly reduce”. For the same compound, the “inhibition of the MCT-induced increase in RV/(LV + S)” value in the data set on MCT-induced PAH is recorded as “dose-dependent inhibition”. For the same compound, the “Efficacy (% vs. Iloprost) [95% CI], recombinant IP receptor cAMP” value at IP was 67 [64, 71] %.

In “Rat PK (iv and oral)” (plasma), `O=C(O)COC[C@H]1CC[C@H](COC(=O)N(c2ccccc2)c2cccc(F)c2)CC1` [5g, 2-(((1r,4r)-4-(((3-Fluorophenyl)(phenyl)carbamoyloxy)methyl)cyclohexyl)methoxy)acetic Acid] registered an AUC(0-inf) of 7900 ng·h/mL and a bioavailability of 39%. In the data set “Rat PK (iv and oral)” (po 10 mg/kg (5m 10.5)), the Cmax worked out at 3400 ng/mL and the Tmax was determined as 0.3 h. Moreover, the “unbound Cmax plasma concentration” value in “Rat PK (iv and oral)” was found to be 300 nM. Also, the T1/2 in “Rat PK (iv and oral)” (setting [2]) is listed as 3.4 h. In addition, the Clobs in “Rat PK (iv and oral)” (setting [3]) was determined as 1.2 L h^–1 kg^–1. In addition, the “off-target liabilities in a wider screen” value in the data set with 95 GPCR profile was “no additional off-target liabilities were observed”. The compound further came in with a Ki on DP1 of 1.85 µM. Also, the IC50 on hERG channel was over 30 µM. Moreover, the “inhibition of the MCT-induced increase in RV/(LV + S)” value in the data set with MCT-induced PAH was “dose-dependent inhibition”. The compound also showed a half-inhibitory concentration (IC50) on CYP 2C9 of over 50 µM. Besides, the half-life in [1] is over 1 h. Also, the half-maximal inhibitory concentration (IC50) on CYP 2C19 was over 50 µM.

Turning to `CC#CCC(C)[C@H](O)/C=C/[C@@H]1[C@H]2C/C(=C/CCCC(=O)O)C[C@H]2C[C@H]1O` (some centres unmarked) [iloprost], on EP1, the EC50 came to 0.047 µM and the “EP1 % I.A” value is 48%. Besides, at IP, the “Efficacy (% vs. Iloprost) [95% CI], recombinant IP receptor cAMP” value is 100%.
